# Measurements as given in US20260232767A1, “INTERLEUKIN-23 RECEPTOR ANTAGONIST PEPTIDES FOR USE IN THE TREATMENT OF PSORIASIS” (Janssen Pharmaceutica NV, priority 2023, published 2026).
# Like-named read-outs stand apart in the source and are kept apart here.
# How the values were obtained:
# IL-17A = assay: Serum IL-17A immunoassay; type: in vivo, human; details: all treatment groups relative to placebo
# Method: To evaluate psoriasis relevant systemic biomarkers (Beta-defensin 2 (BD-2), IL-17A, IL-17F, and IL-22), protein concentrations were measured in serum using validated immunoassays. The IL-17A (Catalog #03-0159-00) and IL-17F (Catalog #03-0164-00) assays used are commercially available SMC™-based high sensitivity immunoassays produced by the EMD Millipore Corporation. The manufacturer's protocols were followed and analyzed on the Erenna® instrument platform except for the use of 11 μL Elution Buffer B. While the IL-22 assay is also based on the SMC™ platform and run on the Erenna instrument, the assay was developed internally as a coated plate-based assay. The development and optimization of the BD-2 assay was done on the Meso Scale Discovery on the electrochemiluminescence-based platform, a division of Meso Scale Diagnostics LLC (MSD). For all assays, concentration adjustments were made to values measuring below empirically defined LLOQ or empirically defined ULOQ values. Assay QC verified performance of generated standard curves (average concentration recovery & CV of technical replicates) and control samples (inter-assay plate agreement (CV)).
# Serum levels of psoriasis disease biomarkers BD-2, IL-22, IL-17A, and IL-17F relative to baseline were analyzed in patients who received placebo or the compound of Formula (I) and compared to clinical response. […]
# [1] = system: anti-drug antibodies to the IL-23 receptor antagonist peptide; details: for Subjects negative for treatment-emergent anti-peptide antibodies, % / Subjects positive for treatment-emergent anti-peptide antibodies, %: through Week 16 or Follow-up Week 20; for Subjects positive for treatment-emergent anti-peptide antibodies at any time, %: through Week 16
# [2] = system: subjects with moderate-to-severe plaque psoriasis; assay: PSSD symptoms and signs scores, Example 1; type: in vivo, human; details: each dose group vs placebo; Week 16
# Excerpt: The Psoriasis Symptom and Sign Diary (PSSD) includes patient-reported outcome (PRO) questionnaires designed to measure the severity of psoriasis symptoms and signs for the assessment of treatment benefit. This study uses a 7-day recall version of the PSSD that asks the participant to answer the questions thinking about the last 7 days. The PSSD is a self-administered PRO instrument and includes 11 items covering symptoms (itch, pain, stinging, burning, and skin tightness) and patient-observable signs (skin dryness, cracking, scaling, shedding or flaking, redness, and bleeding) using 0 to 10 numerical rating scales for severity. Two subscores will be derived each ranging from 0 to 100: the psoriasis symptom score and the psoriasis sign score. A higher score indicates more severe disease.
# Efficacy, PK, immunogenicity, biomarker, pharmacogenomic, and safety criteria were measured during the treatment. Subjects were provided with an electronic device to enter patient-reported outcome (PRO) data at each study visit. All visit-specific PRO assessments were conducted/completed before any tests, procedures or other clinical assessments, with the exception of the urine pregnancy test and urinalysis, to prevent influencing subject perceptions.
compound,measurement,setting,value
"CC(=O)NCCCC[C@@H]1NC(=O)[C@H](Cc2c[nH]c3c(C)cccc23)NC(=O)[C@H]([C@@H](C)O)NC(=O)[C@H](CC(N)=O)NC(=O)[C@@H](NC(C)=O)C(C)(C)SSC(C)(C)[C@@H](C(=O)N[C@@H](Cc2ccc(OCCN)cc2)C(=O)N[C@@H](Cc2ccc3ccccc3c2)C(=O)NC2(C(=O)N[C@@H](CCC(=O)O)C(=O)N[C@@H](CC(N)=O)C(=O)N[C@@H](Cc3cccnc3)C(=O)N(C)CC(N)=O)CCOCC2)NC1=O [IL-23 receptor antagonist peptide, Ac-[Pen]*-N-T-[W(7-Me)]-[Lys(Ac)]-[Pen]*-Phe[4-(2-aminoethoxy)]-[2-Nal]-[THP]-E-N-[3-Pal]-Sarc-NH2 (*[Pen]-[Pen]* formdisulfidebond)]",IL-17A serum levels,IL-17A,Statistically significant reductions
same,"Footnote d group: Baseline titers 1:50, n subjects","[1]; 25 mg BID, N=41",0
same,"Peak titer group <50, n subjects","[1]; 25 mg BID, N=41",0
same,"Peak titer group >50-<100, n subjects","[1]; 25 mg BID, N=41",0
same,"Peak titer group ≥100-<1000, n subjects","[1]; 25 mg BID, N=41",0
same,"Peak titer group ≥1000, n subjects","[1]; 25 mg BID, N=41",0
same,"Positive at baseline: Baseline titers 1:50, n subjects","[1]; 25 mg BID, N=41",0
same,"Treatment-boosted (footnote c): Baseline titers 1:50, n subjects","[1]; 25 mg BID, N=41",0
same,"Treatment-emergent: Peak titers 1:50, n subjects","[1]; 25 mg BID, N=41",0
same,"Subjects negative for treatment-emergent anti-peptide antibodies, %","[1]; 25 mg BID, N=41",100%
same,"Footnote d group: Baseline titers 1:50, n subjects","[1]; 25 mg QD, N=42",0
same,"Peak titer group <50, n subjects","[1]; 25 mg QD, N=42",1
same,"Peak titer group >50-<100, n subjects","[1]; 25 mg QD, N=42",0
same,"Peak titer group ≥100-<1000, n subjects","[1]; 25 mg QD, N=42",0
same,"Peak titer group ≥1000, n subjects","[1]; 25 mg QD, N=42",0
same,"Positive at baseline: Baseline titers 1:50, n subjects","[1]; 25 mg QD, N=42",0
same,"Treatment-boosted (footnote c): Baseline titers 1:50, n subjects","[1]; 25 mg QD, N=42",0
same,"Treatment-emergent: Peak titers 1:50, n subjects","[1]; 25 mg QD, N=42",1
same,"Subjects positive for treatment-emergent anti-peptide antibodies at any time, %","[1]; 25 mg QD, N=42",(2.4%)
same,"Subjects negative for treatment-emergent anti-peptide antibodies, %","[1]; 25 mg QD, N=42",97.6%
same,"Subjects positive for treatment-emergent anti-peptide antibodies, %","[1]; 25 mg QD, N=42",2.4%
same,"Footnote d group: Baseline titers 1:50, n subjects","[1]; 50 mg QD, N=43",3
same,"Peak titer group <50, n subjects","[1]; 50 mg QD, N=43",1
same,"Peak titer group >50-<100, n subjects","[1]; 50 mg QD, N=43",0
same,"Peak titer group ≥100-<1000, n subjects","[1]; 50 mg QD, N=43",0
same,"Peak titer group ≥1000, n subjects","[1]; 50 mg QD, N=43",0
same,"Positive at baseline: Baseline titers 1:50, n subjects","[1]; 50 mg QD, N=43",3
same,"Subjects positive at baseline who were treatment-boosted for antibodies (footnote d: titers did not increase 2-fold), %","[1]; 50 mg QD, N=43",7.0%
same,"Subjects positive for anti-peptide antibodies at baseline, %","[1]; 50 mg QD, N=43",7.0%
same,"Treatment-boosted (footnote c): Baseline titers 1:50, n subjects","[1]; 50 mg QD, N=43",0
same,"Treatment-emergent: Peak titers 1:50, n subjects","[1]; 50 mg QD, N=43",1
same,"Subjects positive for treatment-emergent anti-peptide antibodies at any time, %","[1]; 50 mg QD, N=43",(2.3%)
same,"Subjects negative for treatment-emergent anti-peptide antibodies, %","[1]; 50 mg QD, N=43",97.7%
same,"Subjects positive for treatment-emergent anti-peptide antibodies, %","[1]; 50 mg QD, N=43",2.3%
same,"Footnote d group: Baseline titers 1:50, n subjects","[1]; 100 mg BID, N=41",0
same,"Peak titer group <50, n subjects","[1]; 100 mg BID, N=41",3
same,"Peak titer group >50-<100, n subjects","[1]; 100 mg BID, N=41",0
same,"Peak titer group ≥100-<1000, n subjects","[1]; 100 mg BID, N=41",0
same,"Peak titer group ≥1000, n subjects","[1]; 100 mg BID, N=41",0
same,"Positive at baseline: Baseline titers 1:50, n subjects","[1]; 100 mg BID, N=41",0
same,"Treatment-boosted (footnote c): Baseline titers 1:50, n subjects","[1]; 100 mg BID, N=41",0
same,"Treatment-emergent: Peak titers 1:50, n subjects","[1]; 100 mg BID, N=41",3
same,"Subjects positive for treatment-emergent anti-peptide antibodies at any time, %","[1]; 100 mg BID, N=41",(7.3%)
same,"Subjects negative for treatment-emergent anti-peptide antibodies, %","[1]; 100 mg BID, N=41",92.7%
same,"Subjects positive for treatment-emergent anti-peptide antibodies, %","[1]; 100 mg BID, N=41",7.3%
same,"Footnote d group: Baseline titers 1:50, n subjects","[1]; 100 mg QD, N=42",0
same,"Peak titer group <50, n subjects","[1]; 100 mg QD, N=42",3
same,"Peak titer group >50-<100, n subjects","[1]; 100 mg QD, N=42",0
same,"Peak titer group ≥100-<1000, n subjects","[1]; 100 mg QD, N=42",0
same,"Peak titer group ≥1000, n subjects","[1]; 100 mg QD, N=42",0
same,"Positive at baseline: Baseline titers 1:50, n subjects","[1]; 100 mg QD, N=42",0
same,"Treatment-boosted (footnote c): Baseline titers 1:50, n subjects","[1]; 100 mg QD, N=42",0
same,"Treatment-emergent: Peak titers 1:50, n subjects","[1]; 100 mg QD, N=42",3
same,"Subjects positive for treatment-emergent anti-peptide antibodies at any time, %","[1]; 100 mg QD, N=42",(7.1%)
same,"Subjects negative for treatment-emergent anti-peptide antibodies, %","[1]; 100 mg QD, N=42",92.9%
same,"Subjects positive for treatment-emergent anti-peptide antibodies, %","[1]; 100 mg QD, N=42",7.1%
same,Participants positive for ADA prior to the first dose (baseline),"[1]; 3 of 209, all 50 mg QD group",1.4%
same,"Footnote d group: Baseline titers 1:50, n subjects","[1]; Combined doses, N=209",3
same,"Peak titer group <50, n subjects","[1]; Combined doses, N=209",8
same,"Peak titer group >50-<100, n subjects","[1]; Combined doses, N=209",0
same,"Peak titer group ≥100-<1000, n subjects","[1]; Combined doses, N=209",0
same,"Peak titer group ≥1000, n subjects","[1]; Combined doses, N=209",0
same,"Positive at baseline: Baseline titers 1:50, n subjects","[1]; Combined doses, N=209",3
same,"Subjects positive at baseline who were treatment-boosted for antibodies (footnote d: titers did not increase 2-fold), %","[1]; Combined doses, N=209",(1.4%)
same,"Subjects positive for anti-peptide antibodies at baseline, %","[1]; Combined doses, N=209",(1.4%)
same,"Treatment-boosted (footnote c): Baseline titers 1:50, n subjects","[1]; Combined doses, N=209",0
same,"Treatment-emergent: Peak titers 1:50, n subjects","[1]; Combined doses, N=209",8
same,"Subjects positive for treatment-emergent anti-peptide antibodies at any time, %","[1]; Combined doses, N=209",(3.8%)
same,"Subjects negative for treatment-emergent anti-peptide antibodies, %","[1]; Combined doses, N=209",(96.2%)
same,"Subjects positive for treatment-emergent anti-peptide antibodies, %","[1]; Combined doses, N=209",(3.8%)
same,Improvement (reduction) in PSSD signs score from baseline,[2],significantly greater improvement
same,Improvement (reduction) in PSSD symptoms score from baseline,[2],significantly greater improvement
